Laboratory results published in paper PMC6789174 (Drug Design, Development and Therapy, 2019).
≈ marks a conversion by molar mass, not a printed value. Where two headings read alike, the source gives them in different places.

Legend:
[1] = target: α-glucosidase (Saccharomyces cerevisiae, UniProt P53341); assay: Alpha glucosidase inhibition; format: biochemical
[2] = target: T1, porcine α-amylase (Sus scrofa, UniProt P00690); assay: biochemical
T1 sequence (P00690 16-511): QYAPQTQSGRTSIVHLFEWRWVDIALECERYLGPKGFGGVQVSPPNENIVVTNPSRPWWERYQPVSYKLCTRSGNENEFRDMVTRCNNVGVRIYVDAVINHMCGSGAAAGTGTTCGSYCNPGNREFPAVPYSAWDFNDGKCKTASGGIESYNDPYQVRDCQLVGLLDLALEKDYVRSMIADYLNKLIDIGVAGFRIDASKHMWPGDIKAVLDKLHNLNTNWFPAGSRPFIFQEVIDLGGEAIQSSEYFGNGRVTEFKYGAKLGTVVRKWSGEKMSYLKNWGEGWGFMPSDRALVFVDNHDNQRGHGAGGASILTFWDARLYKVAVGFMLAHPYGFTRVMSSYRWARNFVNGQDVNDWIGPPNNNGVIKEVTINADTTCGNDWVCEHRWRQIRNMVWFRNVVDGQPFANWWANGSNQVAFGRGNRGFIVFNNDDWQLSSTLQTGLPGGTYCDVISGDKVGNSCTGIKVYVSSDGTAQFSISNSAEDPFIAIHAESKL

[3] = target: T2, glucose-6-phosphatase (Homo sapiens, UniProt P35575); assay: Glucose-6-phosphatase activity; format: biochemical; conditions: 33°C, pH 6.7, control 72.0
T2 sequence (P35575 1-357): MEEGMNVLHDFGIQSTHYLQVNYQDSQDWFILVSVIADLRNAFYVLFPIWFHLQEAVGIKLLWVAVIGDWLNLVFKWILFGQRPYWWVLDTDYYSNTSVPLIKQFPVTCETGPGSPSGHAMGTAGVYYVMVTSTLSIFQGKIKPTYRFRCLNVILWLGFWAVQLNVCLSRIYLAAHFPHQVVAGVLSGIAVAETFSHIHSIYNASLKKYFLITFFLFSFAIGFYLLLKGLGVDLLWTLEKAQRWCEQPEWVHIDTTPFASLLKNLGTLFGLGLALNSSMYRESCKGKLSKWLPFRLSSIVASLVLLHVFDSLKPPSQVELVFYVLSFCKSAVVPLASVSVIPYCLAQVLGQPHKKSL

[4] = test system: Proteus vulgaris; assay: Anti-bacterial activity, agar well diffusion; format: cell-based
[5] = target: Butyrylcholinesterase (Homo sapiens, UniProt P06276); assay: Anticholinesterase assay; format: biochemical
Sequence of Butyrylcholinesterase (P06276 29-602): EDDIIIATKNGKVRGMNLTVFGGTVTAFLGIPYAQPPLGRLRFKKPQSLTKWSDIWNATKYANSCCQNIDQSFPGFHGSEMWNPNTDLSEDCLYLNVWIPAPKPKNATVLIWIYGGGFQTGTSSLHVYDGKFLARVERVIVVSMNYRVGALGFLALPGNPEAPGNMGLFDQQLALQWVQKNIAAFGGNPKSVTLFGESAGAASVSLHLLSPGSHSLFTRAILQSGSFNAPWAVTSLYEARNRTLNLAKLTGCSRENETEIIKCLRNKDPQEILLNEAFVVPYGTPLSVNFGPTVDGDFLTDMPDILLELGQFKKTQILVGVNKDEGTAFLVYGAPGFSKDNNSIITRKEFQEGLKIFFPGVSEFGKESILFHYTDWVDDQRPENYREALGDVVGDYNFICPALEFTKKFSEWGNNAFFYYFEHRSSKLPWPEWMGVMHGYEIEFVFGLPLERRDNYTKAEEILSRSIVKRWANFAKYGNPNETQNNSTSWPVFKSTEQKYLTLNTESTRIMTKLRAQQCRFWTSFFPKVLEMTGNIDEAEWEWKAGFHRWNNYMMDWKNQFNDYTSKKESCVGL

[6] = test system: Staphylococcus aureus; assay: Anti-bacterial activity, agar well diffusion; format: cell-based
[7] = target: Acetylcholinesterase (Homo sapiens, UniProt P22303); assay: biochemical
Sequence of Acetylcholinesterase (P22303 32-614, species assumed): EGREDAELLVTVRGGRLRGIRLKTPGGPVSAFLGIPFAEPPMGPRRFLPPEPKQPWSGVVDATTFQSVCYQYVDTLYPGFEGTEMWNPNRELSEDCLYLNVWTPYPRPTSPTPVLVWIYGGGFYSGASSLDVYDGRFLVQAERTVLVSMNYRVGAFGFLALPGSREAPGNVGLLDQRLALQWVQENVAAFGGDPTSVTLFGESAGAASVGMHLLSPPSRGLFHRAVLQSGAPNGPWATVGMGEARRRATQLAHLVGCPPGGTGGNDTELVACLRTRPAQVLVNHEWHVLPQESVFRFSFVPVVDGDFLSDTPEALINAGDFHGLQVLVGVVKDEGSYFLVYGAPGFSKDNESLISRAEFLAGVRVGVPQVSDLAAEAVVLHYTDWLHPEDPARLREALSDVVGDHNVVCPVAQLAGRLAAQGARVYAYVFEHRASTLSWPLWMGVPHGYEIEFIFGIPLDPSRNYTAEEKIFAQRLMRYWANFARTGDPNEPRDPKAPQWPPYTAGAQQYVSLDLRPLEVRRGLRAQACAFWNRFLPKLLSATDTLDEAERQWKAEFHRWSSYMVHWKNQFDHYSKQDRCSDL

[8] = DPPH free radical scavenging
[9] = ABTS free radical scavenging
[10] = test system: Agrobacterium tumefaction; assay: Anti-bacterial activity, agar well diffusion; format: cell-based
[11] = read-out: %Inhibition (mean ± SEM), alpha amylase
[12] = read-out: ZI (Zone of inhibition), Proteus vulgaris
[13] = read-out: %BChE Inhibition (mean ± SEM)
[14] = read-out: ZI (Zone of inhibition), Staphylococcus aureus
[15] = read-out: %AChE Inhibition (mean ± SEM)
[16] = read-out: ZI (Zone of inhibition), Agrobacterium tumefaction

Sequence of α-glucosidase (P53341 whole entry): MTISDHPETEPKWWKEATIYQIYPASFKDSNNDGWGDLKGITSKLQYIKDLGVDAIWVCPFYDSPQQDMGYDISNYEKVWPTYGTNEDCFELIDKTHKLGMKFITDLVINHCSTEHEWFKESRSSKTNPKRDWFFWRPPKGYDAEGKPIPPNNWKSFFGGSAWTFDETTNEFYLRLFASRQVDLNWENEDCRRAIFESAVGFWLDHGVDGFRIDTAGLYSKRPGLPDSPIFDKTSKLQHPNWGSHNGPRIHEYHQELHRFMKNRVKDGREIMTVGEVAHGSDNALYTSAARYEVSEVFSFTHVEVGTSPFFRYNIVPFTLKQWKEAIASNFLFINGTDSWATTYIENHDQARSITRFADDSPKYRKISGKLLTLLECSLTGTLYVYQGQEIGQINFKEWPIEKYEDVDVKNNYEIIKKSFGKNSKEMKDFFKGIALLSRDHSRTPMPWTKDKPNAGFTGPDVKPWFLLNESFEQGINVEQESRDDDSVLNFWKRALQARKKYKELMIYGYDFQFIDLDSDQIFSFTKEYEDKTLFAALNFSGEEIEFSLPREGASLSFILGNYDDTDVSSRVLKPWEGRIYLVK

Q: With `C[C@H]1O[C@H](O[C@H]2[C@H](O)[C@@H](O)[C@@H](O[C@H]3[C@H](O)[C@@H](O)C(O)O[C@@H]3CO)O[C@@H]2CO)[C@H](O)[C@@H](O)[C@@H]1N[C@H]1C=C(CO)[C@@H](O)[C@H](O)[C@H]1O` (stereo partly shown) [Acarbose] as the molecule, how does the “%Inhibition (mean ± SEM), alpha glucosidase” value (shortened to “%Inhibition (mean ± SEM)”) [1] read?
A: The value was 94.02 ± 1.23%.

Q: And the “%Inhibition (mean ± SEM)” value ([1]; concentration 125 μg/mL)?
A: Its value is 59.83 ± 2.04%.

Q: What about the “%Inhibition (mean ± SEM)” value ([1]; concentration 250 μg/mL) of the same molecule?
A: Its value is 68.14 ± 2.18%.

Q: What about the “%Inhibition (mean ± SEM)” value ([1]; concentration 500 μg/mL) of the same molecule?
A: Its value is 79.11 ± 2.12%.

Q: What about the inhibition at 125 µg/mL [2, 11] of the same molecule?
A: The inhibition at 125 µg/mL was 58.1 ± 1.34%.

Q: What about the inhibition at 500 µg/mL [2, 11] of the same molecule?
A: The inhibition at 500 µg/mL was 73 ± 1.34%.

Q: And the inhibition at 1000 µg/mL [2, 11]?
A: Its inhibition at 1000 µg/mL is 88.1 ± 1.13%.

Q: What does the source list for `Cc1ccc(NC(=S)Nc2ccccc2)c(C)c1` [Compound IV, 1-(2,4-dimethylphenyl)-3-phenylthiourea]?
A: Total Activity of glucose-6-phosphatase ([3]; concentration 125 µg/mL): 17.70 mg of P released per hour; Total Activity of glucose-6-phosphatase ([3]; concentration 250 µg/mL): 13.58 mg of P released per hour; Total Activity of glucose-6-phosphatase ([3]; concentration 500 µg/mL): 11.77 mg of P released per hour; MIC ([4]; read-out: MIC, Proteus vulgaris): 11.9 µg/mL (≈ 46.5 µM); zone of inhibition at 10 µg/mL [4, 12]: 14 mm; zone of inhibition at 20 µg/mL [4, 12]: 18 mm; zone of inhibition at 30 µg/mL [4, 12]: 23 mm; IC50 [5]: 585 µM; inhibition at 125 µg/mL [5, 13]: 49.8 ± 1.53%; inhibition at 250 µg/mL [5, 13]: 53.5 ± 1.07%; inhibition at 500 µg/mL [5, 13]: 60.5 ± 1.61%; inhibition at 1000 µg/mL [5, 13]: 76.1 ± 1.9%; MIC ([6]; read-out: MIC, Staphylococcus aureus): 4.03 µg/mL (≈ 15.7 µM); zone of inhibition at 10 µg/mL [6, 14]: 21 mm; zone of inhibition at 20 µg/mL [6, 14]: 23 mm; zone of inhibition at 30 µg/mL [6, 14]: 26 mm; IC50 [7]: 1960 µM; inhibition at 125 µg/mL [7, 15]: 42 ± 1.01%; inhibition at 250 µg/mL [7, 15]: 45.1 ± 1.83%; inhibition at 500 µg/mL [7, 15]: 50 ± 1.88%; inhibition at 1000 µg/mL [7, 15]: 64 ± 1.7%; DPPH IC50 [8]: 64 µg/mL; DPPH % I (mean ± S.E.M) ([8]; concentration 125 μg/mL): 66.15 ± 1.70%; DPPH % I (mean ± S.E.M) ([8]; concentration 250 μg/mL): 69.31 ± 2.11%; DPPH % I (mean ± S.E.M) ([8]; concentration 500 μg/mL): 74.13 ± 1.51%; DPPH % I (mean ± S.E.M) ([8]; concentration 1000 μg/mL): 79.15 ± 1.23%; %Inhibition (mean ± SEM), alpha glucosidase ([1]; concentration 250 μg/mL): 55.88 ± 2.04%; ABTS IC50 [9]: 100 µg/mL; ABTS radical scavenging, in words [9]: moderately effective; ABTS % I (mean ± S.E.M) ([9]; concentration 125 μg/mL): 64.81 ± 1.05%; ABTS % I (mean ± S.E.M) ([9]; concentration 250 μg/mL): 70.13± 0.05%; ABTS % I (mean ± S.E.M) ([9]; concentration 500 μg/mL): 74.99 ± 1.51%; ABTS % I (mean ± S.E.M) ([9]; concentration 1000 μg/mL): 78.15 ± 1.21%; IC50 [2]: 242 µM; inhibition at 125 µg/mL ([2]; read-out: %Inhibition (mean ± SEM), alpha amylase, concentration 125 µg/mL): 69 ± 1.19%; inhibition at 250 µg/mL ([2]; read-out: %Inhibition (mean ± SEM), alpha amylase, concentration 250 µg/mL): 75.63 ± 0.63%; inhibition at 500 µg/mL ([2]; read-out: %Inhibition (mean ± SEM), alpha amylase, concentration 500 µg/mL): 79.2 ± 1.09%; inhibition at 1000 µg/mL ([2]; read-out: %Inhibition (mean ± SEM), alpha amylase, concentration 1000 µg/mL): 80.1 ± 2.02%; MIC ([10]; read-out: MIC, Agrobacterium tumefaction): 13.5 µg/mL (≈ 52.6 µM); zone of inhibition at 10 µg/mL [10, 16]: 14 mm; zone of inhibition at 20 µg/mL [10, 16]: 18 mm; zone of inhibition at 30 µg/mL [10, 16]: 23 mm
